In patent US5650428A, “Arylsulfonamide derivative and pharmaceutical compositions and use thereof” (NKK Corporation, priority 1993, dated 1997):
Where a name gives a salt, the structure may show the parent alone.

What was measured:
[1] = molecular target: T1, thromboxane A2 (TxA2) receptor (Cavia porcellus, UniProt A0A286Y4I8); assay: TxA2 antagonist action by binding assay; conditions: washed guinea pig platelets, 1 nM [3H]-SQ29,548, 45 minutes at 25° C.
T1 construct: to obtain washed platelets; from tissue; host or cells: washed platelets of male Hartley guinea pigs
T1 sequence (A0A286Y4I8 1-347): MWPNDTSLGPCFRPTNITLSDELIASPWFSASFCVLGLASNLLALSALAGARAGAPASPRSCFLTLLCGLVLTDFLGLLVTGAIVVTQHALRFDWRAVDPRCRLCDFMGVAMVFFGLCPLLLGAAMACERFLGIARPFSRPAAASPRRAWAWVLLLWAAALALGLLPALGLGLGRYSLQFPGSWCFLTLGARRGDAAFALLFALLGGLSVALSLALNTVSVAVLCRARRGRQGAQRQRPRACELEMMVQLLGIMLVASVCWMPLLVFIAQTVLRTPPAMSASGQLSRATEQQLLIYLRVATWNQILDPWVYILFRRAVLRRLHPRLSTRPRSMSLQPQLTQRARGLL
Protocol: (1) TxA2 antagonist action by binding assay Guinea pigs (Hartley; male; body weight=approximately 500 g) were anesthetized with ether, and the blood was collected into sodium citrate (final concentration=0.38%). The preparation of platelets was carried out at room temperature. The platelet rich plasma was obtained by centrifugation at 980 rpm for 10 minutes. One tenth (1/10) amount of 77 mM-EDTA-Na (pH 7.4) was added to the platelet rich plasma, and the mixture was centrifuged for 10 minutes at 3000 rpm. The suspension was again centrifuged at 3000 rpm for 10 minutes. The precipitate was further resuspended in a suspension buffer (2) shown in Table 2 to obtain washed platelets. The number of platelets was counted by an automatic blood cell counter (Sysmex Microcellcounter F-800) and the sample was diluted with the suspension buffer to 4×10^8 cells/ml. The platelets, sample solution and labeled compounds were placed into plastic tubes in amounts (volumes) shown in the following Table 3, incubated for 45 minutes at 25° C., and then the mixture was filtered using a cell harvester (Brandel cell harvester M-24R) by a glass fiber filter (Whatman GF/B). After the filter was sufficiently dried, the scintillation was counted by a scintillation counter (Beckman LS5000TD). IC50 was calculated from (binding)/(control binding) ratio in the presence of an antagonist. [table 3: the next 10 blocks are its lines as printed, fixed-width]

rat platelet = assay: Inhibitory activity of aggregation in rat platelet; type: cell-based; conditions: rat platelet rich plasma, arachidonic acid (final concentration 0.5 mM) as inducer; read-out: C: Inhibitory activity of aggregation in rat platelet (IC50; μM)
Protocol: (3) Inhibitory Activity of Aggregation in Rat Platelet The abdomen of etherized rat was open, and blood was taken from the abdominal arteries, using a sodium citrate solution (final concentration was 0.38%). The blood was centrifuged at 1100 rpm for 10 minutes, and the supernatent was separated as the platelet rich plasma. The plasma was further centrifuged at 2000 rpm for 15 minutes to obtain the supernatent as a platelet poor plasma. The platelet rich plasma (280 μl) was placed in a measuring cuvette and preincubated for 1 minute at 37° C. Then, a sample solution (10 μl) was added. After 2 minutes, an arachidonic acid solution (final concentration=0.5 mM) (10 μl) was added as an inducer. The change in light transmission was recorded for 5 minutes.

SMILES | IC50 [1] [µM] | IC50 (rat platelet) [µM]
O=C(O)Cc1cccc(NC(=O)C(COC2CCCCO2)NS(=O)(=O)c2ccc(Cl)cc2)c1 (racemic) [Example 45, (RS)-N-(3-(carboxymethyl)phenyl)-2-(4-chlorobenzenesulfonylamino)-3-(tetrahydropyran-2-yloxy)propanamide] | 0.42 | 3.6
O=C(O)CCc1cccc(NC(=O)C(COC2CCCCO2)NS(=O)(=O)c2ccc(Cl)cc2)c1 (racemic) [Example 46, (RS)-N-(3-(carboxyethyl)phenyl)-2-(4-chlorobenzenesulfonylamino)-3-(tetrahydropyran-2-yloxy)propanamide] | 0.11 | 1.7
O=C(O)CCCNC(=O)C(COC1CCCCO1)NS(=O)(=O)c1ccc(Cl)cc1 (racemic) [Example 47, (RS)-N-(3-carboxypropyl)-2-(4-chlorobenzenesulfonylamino)-3-(tetrahydropyran-2-yloxy)propanamide] |  | 1.5
O=C(O)CCCCNC(=O)C(COC1CCCCO1)NS(=O)(=O)c1ccc(Cl)cc1 (racemic) [Example 48, (RS)-N-(4-carboxybutyl)-2-(4-chlorobenzenesulfonylamino)-3-(tetrahydropyran-2-yloxy)propanamide] |  | 1.7
O=C(O)CCCCCNC(=O)C(COC1CCCCO1)NS(=O)(=O)c1ccc(Cl)cc1 (racemic) [Example 49, (RS)-N-(5-carboxypentyl)-2-(4-chlorobenzenesulfonylamino)-3-(tetrahydropyran-2-yloxy)propanamide] | 1.7 | 0.4
O=C(O)CCCCCCNC(=O)C(COC1CCCCO1)NS(=O)(=O)c1ccc(Cl)cc1 (racemic) [Example 50, (RS)-N-(6-carboxyhexyl)-2-(4-chlorobenzenesulfonylamino)-3-(tetrahydropyran-2-yloxy)propanamide] | 1 | 1.75
O=C(O)Cc1ccc(NC(=O)C(COC2CCCCO2)NS(=O)(=O)c2ccccc2)cc1 (racemic) [Example 52, (RS)-2-(benzenesulfonylamino)-N-(4-(carboxymethyl)phenyl)-3-(tetrahydropyran-2-yloxy) propanamide] | 2.2 | 1.7
O=C(O)Cc1ccc(NC(=O)C(COC2CCCCO2)NS(=O)(=O)c2ccc(F)cc2)cc1 (racemic) [Example 53, (RS)-N-(4-(carboxymethyl)phenyl)-2-(4-fluorobenzenesulfonylamino)-3-(tetrahydropyran-2-yloxy)propanamide] | 0.2 | 0.53
O=C(O)CCCCCNC(=O)C(Cn1ccnc1)NS(=O)(=O)c1ccc(Cl)cc1 (racemic) [Example 100, (RS)-N-(5-carboxypentyl)-2-(4-chlorobenzenesulfonylamino)-3-(1H-imidazol-1-yl)propanamide hydrochloride] |  | 1.7
O=C(O)CCCCNC(=O)C(COc1cccnc1)NS(=O)(=O)c1ccc(Cl)cc1 (racemic) [Example 119, (RS)-N-(4-carboxybutyl)-2-(4-chlorobenzenesulfonylamino)-3-(pyridin-3-yloxy)propanamide hydrochloride] |  | 1.7
CCC(NS(=O)(=O)c1ccc(Cl)cc1)C(=O)Nc1ccc(CC(=O)O)cc1 (racemic) [Example 220, (RS)-N-(4-(carboxymethyl)phenyl)-2-(4-chlorobenzenesulfonylamino) butanamide] |  | 0.53
CCCC(NS(=O)(=O)c1ccc(Cl)cc1)C(=O)Nc1ccc(CC(=O)O)cc1 (racemic) [Example 221, (RS)-N-(4-(carboxymethyl)phenyl)-2-(4-chlorobenzenesulfonylamino)pentanamide] |  | 0.53
CCCCC(NS(=O)(=O)c1ccc(Cl)cc1)C(=O)Nc1ccc(CC(=O)O)cc1 (racemic) [Example 222, (RS)-N-(4-(carboxymethyl)phenyl)-2-(4-chlorobenzenesulfonylamino)hexanamide] |  | 0.17
CCCCCCC(NS(=O)(=O)c1ccc(Cl)cc1)C(=O)Nc1ccc(CC(=O)O)cc1 (racemic) [Example 230, (RS)-N-(4-(carboxymethyl)phenyl)-2-(4-chlorobenzenesulfonylamino)octanamide] |  | 0.55
CC(C)C(NS(=O)(=O)c1ccc(Cl)cc1)C(=O)Nc1ccc(CC(=O)O)cc1 (racemic) [Example 231, (RS)-N-(4-(carboxymethyl)phenyl)-2-(4-chlorobenzenesulfonylamino)-3-methylbutanamide] |  | 1.7
CSCCC(NS(=O)(=O)c1ccc(Cl)cc1)C(=O)Nc1ccc(CCC(=O)O)cc1 (racemic) [Example 236, (RS)-N-(4-(2-carboxyethyl)phenyl)-2-(4-chlorobenzenesulfonylamino)-4-methylthiobutanamide] | 0.42 | 
O=C(O)CCc1ccc(NC(=O)C(CC2CCCCC2)NS(=O)(=O)c2ccc(Cl)cc2)cc1 (racemic) [Example 261, (RS)-N-(4-(2-carboxyethyl)phenyl)-2-(4-chlorobenzenesulfonylamino)-3-cyclohexylpropanamide] |  | 2.3
CCCC[C@H](NS(=O)(=O)c1ccc(Cl)cc1)C(=O)Nc1ccc(CCC(=O)O)cc1 [Example 225, (S)-N-(4-(2-carboxyethyl)phenyl)-2-(4-chlorobenzenesulfonylamino)hexanamide] |  | 0.56
CCCC[C@H](NS(=O)(=O)c1ccc(Br)cc1)C(=O)Nc1ccc(CC(=O)O)cc1 [Example 227, (S)-2-(4-bromobenzenesulfonylamino)-N-(4-(carboxymethyl)phenyl)hexanamide] | 0.045 | 
CCCC[C@H](NS(=O)(=O)c1ccc(Br)cc1)C(=O)Nc1ccc(CCC(=O)O)cc1 [Example 228, (S)-2-(4-bromobenzenesulfonylamino)-N-(4-(2-carboxyethyl)phenyl)hexanamide] | 0.057 | 
CCSCC[C@H](NS(=O)(=O)c1ccc(Cl)cc1)C(=O)Nc1ccc(CC(=O)O)cc1 [Example 243, (S)-N-(4-(carboxymethyl)phenyl)-2-(4-chlorobenzenesulfonylamino)-4-ethylthiobutanamide] |  | 0.17
CCSCC[C@H](NS(=O)(=O)c1ccc(Br)cc1)C(=O)Nc1ccc(CC(=O)O)cc1 [Example 245, (S)-2-(4-bromobenzenesulfonylamino)-N-(4-(carboxymethyl)phenyl)-4-ethylthiobutanamide] |  | 0.055
CCSCC[C@H](NS(=O)(=O)c1ccc(Br)cc1)C(=O)Nc1ccc(CCC(=O)O)cc1 [Example 246, (S)-2-(4-bromobenzenesulfonylamino)-N-(4-(2-carboxyethyl)phenyl)-4-ethylthio-butanamide] | 0.034 | 
O=C(O)Cc1ccc(NC(=O)[C@@H](Cc2ccccc2)NS(=O)(=O)c2ccc(Br)cc2)cc1 [Example 253, (R)-2-(4-bromobenzenesulfonylamino)-N-(4-(carboxymethyl)phenyl)-3-phenylpropanamide] | 1.3 | 
O=C(O)c1ccc(NC(=O)[C@H](Cc2ccccc2)NS(=O)(=O)c2ccc(Br)cc2)cc1 [Example 256, (S)-2-(4-bromobenzenesulfonylamino)-N-(4-carboxyphenyl)-3-phenylpropanamide] |  | 0.17
O=C(O)Cc1ccc(NC(=O)[C@H](Cc2c[nH]c3ccccc23)NS(=O)(=O)c2ccc(Cl)cc2)cc1 [Example 258, (S)-N-(4-(carboxymethyl)phenyl)-2-(4-chlorobenzenesulfonylamino)-3-(3-indolyl) propanamide] |  | 0.53
